Assay results from publication PMC12775434, “Ultra-large virtual screening unveils potent agonists of the neuromodulatory orphan receptor GPR139” (Nature Communications, 2025).
In brackets after ≈: the same amount, converted by molar mass. Several values for one entry are separate records, joined by “and”; a condition that tells them apart may be missing. Identical values can stand only once. Like-named read-outs stand apart in the source and are kept apart here.

Tests used:
[1] = system: C57BL/6 J mice; assay: Open-field test (locomotion and thigmotaxis); format: in vivo, mouse; set-up: Total distance travelled in 50 mins (Figure 6a) / Open-field test, locomotion over time (sheet 6b) / Open-field test, thigmotaxis, whole session (sheet 6c): unit not given here; conditions: for Total distance travelled in 50 mins (Figure 6a) / Open-field test, locomotion over time (sheet 6b) / Open-field test, thigmotaxis over time (sheet 6d) / Open-field test, thigmotaxis, whole session (sheet 6c): individual mice
Procedure: (§1) Adult […] C57BL/6 J mice (3-6 months old) were provided by Charles River. Both females and males (15 females and 9 males) were used in this study. Sex was evenly distributed across experimental groups. Sex was not considered in the study design or analysis, as no reports indicate differential expression levels of GPR139 between male and female mice. They were housed with ad libitum food and water, in a temperature and humidity-controlled environment under a standard 12 h light/dark cycle. The experiments were performed in agreement with the European Council Directive (86/609/EEC) and approved by the local Animal Ethics Committee at Karolinska Institute (3218-2022). All efforts were made to minimize suffering and the number of animals used. Mice were treated with either 10% DMSO + 10% solutol HS-15 + 80% saline (vehicle, n = 8), compound 1.5 (n = 8, 30 mg/kg i.p.), or JNJ-63533054 (n = 8, 30 mg/kg i.p.), both of which were dissolved in 10% DMSO + 10% solutol HS-15 + 80% saline. Mice were placed in an open field arena 10 min after the injection and recorded for 50 min. Total distance travelled and the time spent in the periphery arena were measured using an automated video tracking system (EthoVision XT 11.5; Noldus). One-way ANOVA followed by Dunnett’s multiple comparisons test and Two-way ANOVA followed by Tukey’s multiple comparisons test were used. Brain and blood samples were taken immediately after the locomotion test. The brain samples were quickly frozen, and blood was drawn from the cervical vein upon decapitation into EP tubes. The samples were immediately centrifuged for 10 min at 3000 × g at 4 °C, and the plasma was transferred into clean polypropylene tubes. All samples were stored at −80 °C before analysis.

[2] = Bioanalysis of compounds in mouse plasma and brain; format: in vivo; conditions: one hour after 30 mg/kg i.p.; for concentration at 1 h: intraperitoneal
Procedure: as §1
1.5(S) and JNJ-63533054, and the internal standard warfarin, were quantified in plasma and brain tissue samples, using ultraperformance liquid chromatography-tandem mass spectrometry (UPLC-MS/MS). Samples, respective blanks, standards, and quality controls (QCs) were included in each bioanalytical run. For both compounds, the calibration curves in plasma included standards at 0.5–10 µM, and QCs at 1.9–7.6 µM, and those in brain tissue homogenate included standards at 1–25 µM, and QCs at 1–20 µM.
Plasma samples were first diluted 1:2 (v:v) in blank plasma on a 96-well plate (Corning). Thereafter, the samples, along with blank plasma, standards, and QCs, were precipitated by adding 180 µL ice-cold acetonitrile containing 100 nM warfarin to 20 µL sample. Samples were vortexed and centrifuged at 2465 × g, at 4 °C, for 20 min (Centrifuge 5810 R, Eppendorf, Germany). The supernatants were transferred to a new 96-well plate and 2 µL were injected onto the UPLC-column. One hemisphere of the brains was homogenized 1:4 (w:v) with 0.1 % formic acid in 1:1 acetonitrile and methanol (v:v) in tubes containing ceramic beads (Precellys® Hard Tissue Homogenizing CK28 (inert 2.8 ceramic, zirconium oxide, beads), 2 mL, polypropylene co-polymer, Bertin Technologies). The mechanical homogenization was performed using a Minilys homogenizer (Bertin Technologies, France) for 30 s at the highest speed (5000 rpm). The tubes were centrifuged at 5204 × g for 7 min, and the supernatant was transferred to an Eppendorf tube. Subsequently, brain homogenate supernatants, along with supernatants from blank brain homogenate, standards, and QCs, were treated as described for diluted plasma samples. […]

[3] = set-up: method as in PMID 26349500; conditions: first hour after treatment; cited from earlier work
[4] = Kinetic solubility; format: physicochemical; conditions: aqueous buffer, kinetic from dmso stock; 100 mM potassium phosphate buffer, 37 °C
Procedure: Test compound was added to 100 mM potassium phosphate buffer and incubated at 37 °C for at least 20 h in a heater-shaker. After incubation, the samples were centrifuged at 3000 × g at 37 °C for 30 min to pellet insoluble material and an aliquot of the supernatant was taken for analysis. After dilution of the sample, the concentration of dissolved compound was quantified by liquid chromatography coupled to triple quadrupole mass spectrometry (LC-MS/MS).

| SMILES | Total distance travelled in 50 mins (Figure 6a) ([1]; 30 mg/kg i.p.) | Open-field test, locomotion over time (sheet 6b) ([1]; 5 mins) | Open-field test, thigmotaxis over time (sheet 6d) ([1]; 5 mins, in % (unit assumed)) | Open-field test, locomotion over time (sheet 6b) ([1]; 10 mins) | Open-field test, thigmotaxis over time (sheet 6d) ([1]; 10 mins, in % (unit assumed)) | Open-field test, locomotion over time (sheet 6b) ([1]; 15 mins) | Open-field test, thigmotaxis over time (sheet 6d) ([1]; 15 mins) | Open-field test, locomotion over time (sheet 6b) ([1]; 20 mins) | Open-field test, thigmotaxis over time (sheet 6d) ([1]; 20 mins) | Open-field test, locomotion over time (sheet 6b) ([1]; 25 mins) | Open-field test, thigmotaxis over time (sheet 6d) ([1]; 25 mins) | Open-field test, locomotion over time (sheet 6b) ([1]; 30 mins) | Open-field test, thigmotaxis over time (sheet 6d) ([1]; 30 mins) | Open-field test, locomotion over time (sheet 6b) ([1]; 35 mins) | Open-field test, thigmotaxis over time (sheet 6d) ([1]; 35 mins) | Open-field test, locomotion over time (sheet 6b) ([1]; 40 mins) | Open-field test, locomotion over time (sheet 6b) ([1]; 45 mins) | Open-field test, thigmotaxis over time (sheet 6d) ([1]; 45 mins) | Open-field test, locomotion over time (sheet 6b) ([1]; 50 mins) | Open-field test, thigmotaxis over time (sheet 6d) ([1]; 50 mins) | further results |
| --- | --- | --- | --- | --- | --- | --- | --- | --- | --- | --- | --- | --- | --- | --- | --- | --- | --- | --- | --- | --- | --- |
| CC(NC(=O)CNC(=O)c1cccc(Cl)c1)c1ccccc1 (stereo not drawn) [JNJ-63533054, reference compound] | 3359.39 and 1792.13 and 2582.49 and 3979.72 and 2080.85 and 9982.78 and 3772.48 and 918.903 | 932.272 and 989.458 and 1696.51 and 1348.86 and 505.51 and 1391.08 and 1396.99 and 852.786 | 70.24 and 93.24 and 86.6 and 72.9333 and 95.6533 and 59.4533 and 79.16 and 62.2 | 809.521 and 300.737 and 1208.9 and 562.14 and 33.766 and 906.8 and 199.588 and 129.938 | 97.5867 and 98.7467 and 63.5867 and 94.9733 and 100 and 78.9333 and 98.0533 and 99.9733 | 194.752 and 21.7885 and 924.739 and 354.313 and 27.675 and 233.464 and 23.6513 and 7.655 | 98.8933 and 100 (4×) and 93.1733 and 95.84 and 98.8533 | 171.669 and 49.3834 and 612.36 and 167.407 and 0 and 187.813 and 0.8234 and 102.119 | 99.9467 and 100 (4×) and 97.5333 and 99.0133 and 99.7333 | 630.708 and 147.757 and 783.223 and 246.73 and 0.6166 and 0.4386 and 0.4195 and 141.542 | 94.8 and 100 (5×) and 94.6667 and 96.8533 | 4.719 and 265.963 and 938.142 and 27.3973 and 11.6817 and 61.4941 and 0 and 205.37 | 100 (5×) and 97.44 and 85.8667 and 98.56 | 3.326 and 8.572 and 1042.9 and 433.751 and 7.486 and 2.001 and 0.4323 and 246.216 | 100 (5×) and 84.7333 and 92.4267 and 94.5867 | 521.05 and 1.596 and 845.25 and 8.083 and 7.72 and 4.549 and 0.4103 and 0.9443 | 294.43 and 290.485 and 1172.17 and 477.116 and 34.0014 and 4.204 and 168.331 and 0.6994 | 98.6133 and 97.52 and 87.88 and 86.5333 and 99.8133 and 100 (2×) and 97.44 | 417.274 and 5.107 and 758.587 and 146.686 and 290.447 and 567.543 and 1.48 and 895.221 | 94.5733 and 100 (2×) and 95.4133 and 11.7333 and 93.0667 and 88.9333 and 83.48 | thigmotaxis (time in the periphery) ([1]; 30 mg/kg i.p., vs vehicle): spent more time in the periphery compared to the vehicle group; total distance travelled in the open field arena ([1]; 30 mg/kg i.p., vs vehicle): results similar to those obtained for JNJ-63533054; Open-field test, thigmotaxis over time (sheet 6d) ([1]; 40 mins): 97.24 and 100 (6×) and 95.16; Open-field test, thigmotaxis, whole session (sheet 6c) [1]: 97.4653 and 94.024 and 95.1893 and 98.6947 and 88.4613 and 85.0307 and 98.8533 and 92.4467; concentration at 1 h ([2]; both sexes, C57BL/6 J, brain, read-out: total brain tissue concentration (Cbrain)): 24.8 µM; Kp at 1 h ([2]; both sexes, C57BL/6 J, brain/plasma, ip, single time point, read-out: total brain-to-plasma concentration ratio (Kp,brain)): 1.21 ± 0.12; concentration at 1 h ([2]; both sexes, C57BL/6 J, plasma, read-out: total plasma concentration (Cplasma)): 20.5 µM; total brain tissue concentration (Cbrain) [2]: 24.8 ± 6.2 µM; total plasma concentration (Cplasma) [2]: 20.5 ± 5.3 µM; locomotor activity [3]: reduction in locomotor activity |
| Cc1cscc1-c1nc(CC(=O)N[C@@H](C)c2ccccc2)no1 [1.1(S)] |  |  |  |  |  |  |  |  |  |  |  |  |  |  |  |  |  |  |  |  | solubility kinetic [4]: 13 µM (≈ 4.26 µg/mL) |
| Cc1nocc1-c1nc(CC(=O)NC(C)c2ccccc2)no1 (stereo not drawn) [Compound 1.5, CC(C1=CC=CC=C1)NC(CC2=NOC(C3=CON=C3C)=N2)=O] | 3619.7 and 1516.14 and 932.636 and 2008.89 and 11482.8 and 3961.35 and 3158.61 and 1417.56 | 1534.71 and 1388.77 and 1295.98 and 638.887 and 1035.03 and 624.833 and 367.922 and 520.924 | 58.4267 and 77.1733 and 70.76 and 76.5333 and 44.5867 and 92.2133 and 78.64 and 98.2267 | 944.829 and 1045.75 and 698.474 and 211.083 and 1038.45 and 297.32 and 169.554 and 251.751 | 57.6133 and 89.2933 and 80.9867 and 94.6933 and 45.7733 and 98.64 and 97.4267 and 99.88 | 724.917 and 289.775 and 194.585 and 64.0034 and 579.982 and 38.8587 and 84.0131 and 202.975 | 79.1867 and 87.4267 and 100 (4×) and 67.5067 and 98.8533 | 43.478 and 341.627 and 152.166 and 3.91 and 301.879 and 49.2379 and 23.1583 and 69.7204 | 100 (5×) and 93.36 and 86.0667 and 98.92 | 1347.85 and 148.793 and 124.524 and 4.2615 and 37.5095 and 24.1112 and 17.1945 and 57.9976 | 75.1067 and 91.4267 and 100 (6×) | 1735.43 and 147.426 and 152.999 and 41.6297 and 15.7939 and 39.7283 and 43.7378 and 9.443 | 59.8267 and 99.36 and 97.2933 and 98.9733 and 100 (3×) and 97.7867 | 1485.83 and 64.3909 and 126.684 and 26.842 and 6.448 and 42.921 and 11.8566 and 37.4144 | 59.8533 and 100 (6×) and 99.44 | 1609.58 and 127.219 and 108.3 and 183.443 and 63.0073 and 201.855 and 59.5513 and 1.7683 | 1163.43 and 158.947 and 183.999 and 73.8724 and 168.393 and 37.8929 and 22.5543 and 382.596 | 64.4933 and 94.68 and 93.2533 and 100 (4×) and 88.1333 | 892.776 and 248.648 and 120.895 and 169.632 and 373.205 and 159.384 and 133.094 and 474.296 | 89.68 and 89.52 and 96.2267 and 100 (3×) and 96.5733 and 99.2533 | solubility kinetic [4]: 24 µM (≈ 7.5 µg/mL); Open-field test, thigmotaxis over time (sheet 6d) ([1]; 40 mins, in % (unit assumed)): 53.72 and 93.1467 and 46.96 and 98.3067 and 97.52 and 91.5467 and 99.2 and 100; Open-field test, thigmotaxis, whole session (sheet 6c) [1]: 98.132 and 97.2307 and 99.696 and 69.7907 and 91.5387 and 88.492 and 96.8507 and 82.616 |
